# Results from patent US20210308101A1, “METHODS OF TREATING FIBROMYALGIA” (Aptinyx Inc., priority 2019, published 2021).
# Columns and labels:
# [1] = tested on: subjects with fibromyalgia; assay: PROMIS Physical Function short form; format: in vivo, human
# Description: As used herein, the “PROMIS Physical Function short form” is Patient Reported Outcomes Measurement Information System Physical Function Short Form. The PROMIS physical function short form version 1.0 12a measures the self-reported performance of physical activities including dexterity, walking or mobility and the ability to complete activities of daily living. All 12 questions are based on a 5-point numerical rating scale/Likert scale ranging from 1 to 5 with different categorical responses. Higher scores represent a better quality of life. The PROMIS physical function is made of the 2 following subdomains: • Walking Subdomain Score • If the question, “Can you walk 25 feet on a level surface (with or without support)?” is answered yes, then 6 questions will be assessed. Otherwise, the Walking Subdomain Score will not be calculated. 4 Questions with Scores Ranging from 1 (Unable to do) to 5 (Without any difficulty): • Are you able to walk on flat ground? • Are you able to walk up and down two steps? • Are you able to run at a fast pace for 2 miles? • Are you able to do yard work like raking leaves, weeding, or pushing a lawn mower? 2 Questions with Scores Ranging from 1 (Cannot do) to 5 (Not at all): • Does your health now limit you in doing strenuous activities such as backpacking, skiing, playing tennis, bicycling, or jogging? • Does your health now limit you in hiking a couple of miles on uneven surfaces, including hills? • Sum of those 6 Questions make up the Walking Subdomain Score Ranging from 6 to 30 • Other Physical Function Subdomain Score 5 Questions with Scores Ranging from 1 (Unable to do) to 5 (Without any difficulty): • Are you able to wash and dry your body? • Are you able to get in and out of bed? • Are you able to bend down and pick up clothing from the floor? • Are you able to push open a heavy door? • Are you able to reach and get down an object (such as a can of soup) from above your head? 1 Question with Scores Ranging from 1 (Cannot do) to 5 (Not at all): • Does your health now limit you in doing eight hours of physical labor? • Sum of those 6 Questions make up the Other Physical Function Subdomain Score Ranging from 6 to 30
# If at least 3 questions have been answered within an individual subdomain, that subdomain score may be imputed if missing responses are present. […] A total score for PROMIS physical function was not calculated. The PROMIS physical function assessment was collected and analyzed at visits Screening, Day 1, Week 2, Week 4, Week 6, and Follow-up (Week 7). […] Additionally, the treatment group comparisons were analyzed using the paired t-test and nonparametric Wilcoxon signed-rank test. All PROMIS physical function data collected and the calculated subdomain scores at each visit were presented in a subject listing.
# [2] = tested on: subjects with fibromyalgia; assay: PROMISFM fatigue profile; format: in vivo, human
# Description: As used herein, the “PROMISFM” fatigue profile is Patient Reported Outcomes Measurement Information System Fibromyalgia, which is a 16-question instrument which has four 4-item short forms that examines the intensity of the impact of fatigue in social, cognitive and motivation subdomains. All 16 questions are based on a 5-point numerical rating scale/Likert scale ranging from 1 to 5, with different categorical responses. Lower scores represent a better quality of life. The PROMISFM fatigue profile is made of the 4 following subdomains: • Experience Subdomain Score 3 Questions with Scores Ranging from 1 (Not at All) to 5 (Very Much): • How tired did you feel on average? • How fatigued were you on average? • How exhausted were you on average? 1 Question with Scores Ranging from 1 (None) to 5 (Very Severe): • What was the level of your fatigue on most days? • Sum of those 4 Questions make up the Experience Subdomain Score Ranging from 4 to 20 • Social Impact Subdomain Score 2 Questions with Scores Ranging from 1 (Not at All) to 5 (Very Much): • To what degree did your fatigue interfere with your social activities? • To what degree did your fatigue interfere with your ability to engage in recreational activities? 2 Questions with Scores Ranging from 1 (Never) to 5 (Always): • How often did you have to limit your social activities because of your fatigue? • How often were you too tired to socialize with your friends? • Sum of those 4 Questions make up the Social Impact Subdomain Score Ranging from 4 to 20 • Motivational Impact Subdomain Score 2 Questions with Scores Ranging from 1 (Not at All) to 5 (Very Much): • To what degree did you have trouble starting things because of your fatigue? • To what degree did you have trouble finishing things because of your fatigue? […] 2 Questions with Scores Ranging from 1 (Never) to 5 (Always): • How often were you too tired to think clearly? • How often did your fatigue make you more forgetful? • Sum of those 4 Questions make up the Cognitive Impact Subdomain Score Ranging from 4 to 20
# If at least 2 questions were answered within an individual subdomain, that subdomain score was imputed if missing responses are present. Each subdomain score was multiplied by 4/(number of questions answered) and rounded off to the nearest whole number. Otherwise, that subdomain score was set to missing. The total score was calculated by taking the sum of those 4 subdomains and ranged from 16 to 80. If any of the subdomains were missing, the total score was set to missing. The PROMISFM fatigue profile assessment was collected and analyzed at visits Screening, Day 1, Week 2, Week 4, Week 6, and Follow-up (Week 7). The observed total and subdomain scores, changes from baseline, and changes from treatment periods were summarized using descriptive statistics. Additionally, the treatment group comparisons were analyzed using the paired t-test and nonparametric Wilcoxon signed-rank test. All PROMISFM fatigue profile data collected and the calculated total and subdomain scores at each visit were presented in a subject listing.
# [3] = Week 2 (placebo) to Week 4 (NYX-2925 20 mg)
# [4] = Week 2 (placebo) to Week 6 (NYX-2925 200 mg), not statistically significant
structure (smiles),measurement,setting,value
"CC(C)C(=O)N1CCC[C@]12CN([C@H](C(N)=O)[C@@H](C)O)C2=O [NYX-2925, (2S, 3R)-3-hydroxy-2-((R)-5-isobutyryl-1-oxo-2,5-diazaspiro[3.4]octan-2-yl)butanamide]","PROMIS Physical Function Other Physical Function Subdomain score, mean change",[1]; [3],−0.1
same,"PROMIS Physical Function Walking Subdomain score, mean change",[1]; [3],0.2
same,"PROMIS Physical Function Other Physical Function Subdomain score, mean change",[1]; [4],0.4
same,"PROMIS Physical Function Walking Subdomain score, mean change",[1]; [4],0.5
same,"PROMISFM total fatigue profile score, change from baseline",[2]; NYX-2925 20 mg,reductions from baseline
same,"PROMISFM Cognitive Impact Subdomain Score, changes from Week 2 (placebo)",[2]; NYX-2925 treatment at Weeks 4 and 6,not statistically significant
same,"PROMISFM Fatigue Profile Total Score, mean change","[2]; Week 2 (placebo) to Week 4 (NYX-2925 20 mg), not statistically significant",−3.4
same,"PROMISFM Experience Subdomain Score, mean change","[2]; Week 2 (placebo) to Week 6 (NYX-2925 200 mg), p=0.0036",−2.2
same,"PROMISFM Fatigue Profile Total Score, mean change","[2]; Week 2 (placebo) to Week 6 (NYX-2925 200 mg), p=0.0049",−5.6
same,"PROMISFM Social Impact Subdomain Score, mean change","[2]; Week 2 (placebo) to Week 6 (NYX-2925 200 mg), p=0.0329",−1.4
same,"PROMISFM Motivational Impact Subdomain Score, mean change","[2]; Week 2 (placebo) to Week 6 (NYX-2925 200 mg), p=0.0490",−1.0
same,"PROMISFM Fatigue Profile total score, reduction from baseline","[2]; week six, after four weeks of NYX-2925, scale 16 to 80, n=21",5.4 point
